Tested on: influenza virus NS1 protein levels
Type: cell-based

CCN(CC)CCCC(C)Nc1ccnc2cc(Cl)ccc12 (stereo not drawn) [chloroquine]
viral protein levels in REDD1−/− cells (autophagy inhibitor treatment, Fig. S13): did not affect viral protein levels

CO[C@H]1C[C@@H]2CC[C@@H](C)[C@@](O)(O2)C(=O)C(=O)N2CCCC[C@H]2C(=O)O[C@H]([C@H](C)C[C@@H]2CC[C@@H](O)[C@H](OC)C2)CC(=O)[C@H](C)/C=C(\C)[C@@H](O)[C@@H](OC)C(=O)[C@H](C)C[C@H](C)/C=C/C=C/C=C/1C [rapamycin]
viral protein levels in REDD1+/+ and REDD1−/− cells: down-regulated viral protein levels
influenza virus NS1 protein levels (Fig. S7): reduced influenza virus NS1 protein levels

Reference: publication PMC3329801 (Nature Chemical Biology, 2011)
